Biological target: T1, WIZ protein (HiBit-WIZ fusion protein) (Homo sapiens, UniProt O95785+Q96SW2)
T1 construct: expressed in transfected cells
Experiment: Quantification of WIZ protein levels in HiBit tag fusion protein assay (WIZ HiBit assay in 293T cells)
Format: cell-based
Set-up: remaining activity / Dmax: dose or concentration left out as unconfirmed
Conditions: for DC50: WIZ HiBit assay in 293T cells, 10-point, 5-fold dose response, highest concentration 25 μM, about 18 hours, read-out: WIZ AC50; for Dmax at 25 µM: 100 − Amax; for Dmax at 25 µM / remaining activity at 25 µM: 293T cells; for remaining activity at 25 µM: DMSO-normalized, curve-fitted percentage of WIZ-HiBit remaining at 25 uM
Method in brief: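 HiBit-tagged WIZ (N-terminal tag, HSVTK promoter) stably expressed single-copy in 293T cells; 10-point 1:5 compound series, top 25 μM, ~18 h at 37 °C. Lytic HiBit/LgBit luminescence read; Amax = curve-fitted % WIZ-HiBit remaining at 25 μM, DMSO normalized to 100%.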

[1] = HEK-293T, read-out: % degradation of WIZ (100 − Amax)

T1 sequence (O95785 whole entry, the tested form may be a part): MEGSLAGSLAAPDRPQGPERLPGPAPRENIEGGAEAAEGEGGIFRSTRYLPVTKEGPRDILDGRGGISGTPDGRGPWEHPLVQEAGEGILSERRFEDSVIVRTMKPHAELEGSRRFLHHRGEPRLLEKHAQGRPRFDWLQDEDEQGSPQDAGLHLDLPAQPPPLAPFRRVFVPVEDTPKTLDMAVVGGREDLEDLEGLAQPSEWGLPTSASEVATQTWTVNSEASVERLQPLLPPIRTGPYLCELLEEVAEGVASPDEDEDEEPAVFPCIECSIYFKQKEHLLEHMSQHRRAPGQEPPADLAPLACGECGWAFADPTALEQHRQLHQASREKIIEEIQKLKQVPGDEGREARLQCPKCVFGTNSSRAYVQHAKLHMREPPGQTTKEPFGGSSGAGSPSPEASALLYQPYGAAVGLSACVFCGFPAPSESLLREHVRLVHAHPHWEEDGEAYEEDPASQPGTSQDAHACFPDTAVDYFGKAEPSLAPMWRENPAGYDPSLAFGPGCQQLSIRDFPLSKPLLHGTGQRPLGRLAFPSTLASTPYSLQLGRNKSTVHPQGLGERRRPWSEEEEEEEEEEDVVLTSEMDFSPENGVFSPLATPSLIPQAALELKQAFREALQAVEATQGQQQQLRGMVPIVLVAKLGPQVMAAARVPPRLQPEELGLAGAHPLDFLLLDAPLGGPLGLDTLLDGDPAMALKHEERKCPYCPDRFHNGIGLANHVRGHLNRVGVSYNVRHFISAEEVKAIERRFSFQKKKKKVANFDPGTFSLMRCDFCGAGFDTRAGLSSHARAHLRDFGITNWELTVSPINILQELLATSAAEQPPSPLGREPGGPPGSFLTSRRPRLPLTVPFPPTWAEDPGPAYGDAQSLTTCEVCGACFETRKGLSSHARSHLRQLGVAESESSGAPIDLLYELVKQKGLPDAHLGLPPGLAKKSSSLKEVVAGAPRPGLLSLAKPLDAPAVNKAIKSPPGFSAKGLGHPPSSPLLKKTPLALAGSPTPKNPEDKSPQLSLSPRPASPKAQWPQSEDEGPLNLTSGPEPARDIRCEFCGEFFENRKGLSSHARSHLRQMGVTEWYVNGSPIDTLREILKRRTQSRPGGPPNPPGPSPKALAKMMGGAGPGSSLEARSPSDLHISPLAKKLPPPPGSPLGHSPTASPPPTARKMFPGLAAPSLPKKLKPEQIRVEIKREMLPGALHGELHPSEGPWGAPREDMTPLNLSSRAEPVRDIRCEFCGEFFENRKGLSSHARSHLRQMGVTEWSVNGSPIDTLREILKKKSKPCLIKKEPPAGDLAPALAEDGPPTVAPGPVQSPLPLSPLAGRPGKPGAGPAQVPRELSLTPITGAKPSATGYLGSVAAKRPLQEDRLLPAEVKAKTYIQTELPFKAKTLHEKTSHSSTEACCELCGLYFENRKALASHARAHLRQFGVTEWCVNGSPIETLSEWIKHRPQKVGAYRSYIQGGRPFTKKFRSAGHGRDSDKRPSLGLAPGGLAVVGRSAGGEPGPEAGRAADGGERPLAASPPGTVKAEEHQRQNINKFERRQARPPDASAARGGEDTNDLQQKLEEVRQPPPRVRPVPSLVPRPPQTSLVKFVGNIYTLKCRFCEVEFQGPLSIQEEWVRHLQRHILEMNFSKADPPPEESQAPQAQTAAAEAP
T1 sequence (Q96SW2 whole entry, the tested form may be a part): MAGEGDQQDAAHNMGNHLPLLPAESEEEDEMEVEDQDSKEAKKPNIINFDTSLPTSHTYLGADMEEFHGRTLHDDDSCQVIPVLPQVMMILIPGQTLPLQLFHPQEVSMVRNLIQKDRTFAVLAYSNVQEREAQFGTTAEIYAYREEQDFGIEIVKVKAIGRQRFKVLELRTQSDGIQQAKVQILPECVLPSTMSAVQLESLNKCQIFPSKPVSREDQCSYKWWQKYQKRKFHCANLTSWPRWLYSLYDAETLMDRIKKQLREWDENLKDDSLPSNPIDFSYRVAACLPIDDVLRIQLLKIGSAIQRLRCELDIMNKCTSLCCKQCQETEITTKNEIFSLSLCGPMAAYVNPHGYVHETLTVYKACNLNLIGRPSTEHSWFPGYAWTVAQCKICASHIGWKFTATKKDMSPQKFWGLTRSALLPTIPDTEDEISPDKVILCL
T1 sequence (Q16531 whole entry partner, the tested form may be a part): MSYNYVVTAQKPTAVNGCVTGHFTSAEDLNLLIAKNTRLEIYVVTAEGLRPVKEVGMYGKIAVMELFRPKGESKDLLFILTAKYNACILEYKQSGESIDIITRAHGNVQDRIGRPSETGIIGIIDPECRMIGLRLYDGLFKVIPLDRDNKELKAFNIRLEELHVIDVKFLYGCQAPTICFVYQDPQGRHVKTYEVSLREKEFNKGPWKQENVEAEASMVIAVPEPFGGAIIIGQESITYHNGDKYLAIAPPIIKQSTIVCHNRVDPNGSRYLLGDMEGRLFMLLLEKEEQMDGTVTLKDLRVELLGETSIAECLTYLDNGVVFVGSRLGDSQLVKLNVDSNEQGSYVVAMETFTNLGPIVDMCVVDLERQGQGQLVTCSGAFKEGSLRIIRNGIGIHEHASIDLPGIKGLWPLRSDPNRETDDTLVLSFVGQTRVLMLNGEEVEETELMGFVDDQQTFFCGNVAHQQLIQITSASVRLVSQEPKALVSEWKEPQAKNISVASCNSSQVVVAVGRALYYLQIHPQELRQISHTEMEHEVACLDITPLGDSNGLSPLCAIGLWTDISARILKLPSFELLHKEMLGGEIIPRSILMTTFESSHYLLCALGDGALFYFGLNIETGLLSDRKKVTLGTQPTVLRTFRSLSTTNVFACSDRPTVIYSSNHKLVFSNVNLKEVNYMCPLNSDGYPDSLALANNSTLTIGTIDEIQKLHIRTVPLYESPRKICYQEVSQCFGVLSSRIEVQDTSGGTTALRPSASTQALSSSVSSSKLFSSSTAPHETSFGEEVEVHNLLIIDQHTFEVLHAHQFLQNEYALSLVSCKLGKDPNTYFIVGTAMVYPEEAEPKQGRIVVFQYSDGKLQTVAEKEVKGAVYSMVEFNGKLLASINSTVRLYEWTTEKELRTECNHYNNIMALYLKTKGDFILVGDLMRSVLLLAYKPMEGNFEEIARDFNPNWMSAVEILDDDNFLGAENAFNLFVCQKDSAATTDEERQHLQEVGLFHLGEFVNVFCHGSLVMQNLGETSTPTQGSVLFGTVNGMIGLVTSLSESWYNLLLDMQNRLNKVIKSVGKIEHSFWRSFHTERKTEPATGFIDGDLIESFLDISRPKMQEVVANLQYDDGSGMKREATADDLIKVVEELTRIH

Row | SMILES | Dmax [1] | remaining activity (HEK-293T, read-out: WIZ Amax) | DC50 | Dmax at 25 µM [1] | remaining activity at 25 µM (HEK-293T, read-out: WIZ Amax)
1 | C[C@H]1CN(Cc2ccn3ncc(N4CCC(=O)NC4=O)c3c2)CCN1C1CCC1 [Example 329, (S)-1-(5-((4-cyclobutyl-3-methylpiperazin-1-yl)methyl)pyrazolo[1,5-a]pyridin-3-yl)dihydropyrimidine-2,4(1H,3H)-dione] | 83% | 17% | 0.166 µM |  | 
2 | C[C@H]1CN(Cc2ccn3ncc(N4CCC(=O)NC4=O)c3c2)CCN1C1CCOCC1 [Example 330] |  |  | 0.041 µM | 82% | 18%
3 | C[C@H]1CN(Cc2ccn3ncc(N4CCC(=O)NC4=O)c3c2)CCN1C1COC1 [Example 331] |  |  | 0.073 µM | 76% | 24%
4 | C[C@H]1CN(Cc2ccn3ncc(N4CCC(=O)NC4=O)c3c2)CCN1C1CC2(COC2)C1 [Example 332] |  |  | 22 µM | 49% | 51%
5 | C[C@H]1CN(Cc2ccn3ncc(N4CCC(=O)NC4=O)c3c2)CCN1C1CCCCC1 [Example 333] |  |  | 0.068 µM | 87% | 13%
6 | C[C@H]1CN(Cc2ccn3ncc(N4CCC(=O)NC4=O)c3c2)CCN1C1CCC(F)(F)CC1 [Example 334] |  |  | 0.032 µM | 85% | 15%
7 | C[C@H]1CN(Cc2ccn3ncc(N4CCC(=O)NC4=O)c3c2)CCN1C1CC2(CCC2)C1 [Example 335] |  |  | 0.006 µM | 88% | 12%
8 | C[C@H]1CN(Cc2ccn3ncc(N4CCC(=O)NC4=O)c3c2)CCN1C1CC2(C1)CN(C)C2 [Example 336, (S)-1-(5-((3-methyl-4-(2-methyl-2-azaspiro[3.3]heptan-6-yl)piperazin-1-yl)methyl)pyrazolo[1,5-a]pyridin-3-yl)dihydropyrimidine-2,4(1H,3H)-dione] |  |  | 12 µM | 76% | 24%
9 | C[C@H]1CN(Cc2ccn3ncc(N4CCC(=O)NC4=O)c3c2)CCN1C1CC2(C1)CN(S(C)(=O)=O)C2 [Example 337, (S)-1-(5-((3-methyl-4-(2-(methylsulfonyl)-2-azaspiro[3.3]heptan-6-yl)piperazin-1-yl)methyl)pyrazolo[1,5-a]pyridin-3-yl)dihydropyrimidine-2,4(1H,3H)-dione] |  |  | 0.399 µM | 83% | 17%
10 | O=C1CCN(c2cnn3ccc(CN4CCN(C5CCCCC5)CC4)cc23)C(=O)N1 [Example 338, 1-(5-((4-cyclohexylpiperazin-1-yl)methyl)pyrazolo[1,5-a]pyridin-3-yl)dihydropyrimidine-2,4(1H,3H)-dione] |  |  | 0.033 µM | 83% | 17%
11 | CCS(=O)(=O)N1CCN(Cc2ccn3ncc(N4CCC(=O)NC4=O)c3c2)C[C@@H]1C [Example 339, (S)-1-(5-((4-(ethylsulfonyl)-3-methylpiperazin-1-yl)methyl)pyrazolo[1,5-a]pyridin-3-yl)dihydropyrimidine-2,4(1H,3H)-dione] |  |  | 0.715 µM | 35% | 65%
12 | C[C@H]1CN(Cc2ccn3ncc(N4CCC(=O)NC4=O)c3c2)CCN1C(=O)C1CC1 [Example 340, (S)-1-(5-((4-(cyclopropanecarbonyl)-3-methylpiperazin-1-yl)methyl)pyrazolo[1,5-a]pyridin-3-yl)dihydropyrimidine-2,4(1H,3H)-dione] |  |  | 0.862 µM | 32% | 68%
13 | CC(C)C(=O)N1CCN(Cc2ccn3ncc(N4CCC(=O)NC4=O)c3c2)C[C@@H]1C [Example 341, (S)-1-(5-((4-isobutyryl-3-methylpiperazin-1-yl)methyl)pyrazolo[1,5-a]pyridin-3-yl)dihydropyrimidine-2,4(1H,3H)-dione] |  |  | 0.799 µM | 30% | 70%

From US11787785B2 (NOVARTIS AG, priority 2021, dated 2023)
